From publication doi:10.1101/679118v2 (biorxiv, 2019)
pEC50: −log10 of the molar value.

System: E. histolytica
Experiment: microbe, parasite or virus in culture
Parameters: species or system Entamoeba histolytica HM-1:IMSS trophozoites
Conditions: Entamoeba histolytica, 24 h, read-out: EC50 E. histolytica

Row | SMILES | pEC50
1 | NC1CCN(c2c(F)cc3c(=O)c(C(=O)O)cn(C4CC4)c3c2Cl)C1 (centres unmarked) [Clinafloxacin] | 3.57
2 | O=C(O)c1cn(C2CC2)c2cc(N3CCNCC3)c(F)cc2c1=O [ciprofloxacin] | 3.60
3 | COc1cc(NS(C)(=O)=O)ccc1Nc1c2ccccc2nc2ccccc12 [Amsacrine] | 4.10

More lines, in order of rising pEC50, values ahead:

Row | pEC50 | SMILES
4 | 3.70 | COc1cc([C@@H]2c3cc4c(cc3[C@@H](O[C@@H]3O[C@@H]5CO[C@@H](C)O[C@H]5[C@H](O)[C@H]3O)[C@H]3COC(=O)[C@H]23)OCO4)cc(OC)c1O [etoposide]
5 | 4.82 | C[C@H]([C@H](C)N1CC(=O)NC(=O)C1)N1CC(=O)NC(=O)C1 [ICRF 193]
